Source: patent US9399649B2, “Compounds for treating spinal muscular atrophy” (PTC Therapeutics Inc., priority 2012, dated 2016)

Key:
[1] = Body weight of neonatal Δ7 SMA mice; type: in vivo; conditions: neonatal SMA Δ7 homozygous knockout mice, IP QD PND 3 to PND 23, then orally BID from PND 24 until study end, FIG. 13
Procedure: The change in body weight of neonatal SMA mice is used to determine whether treatment with a test compound improves body weight.
SMA Δ7 homozygous knockout mice are dosed intraperitoneally (IP) with test compound or vehicle (100% DMSO) QD from PND 3 until the dose regimen is switched to an oral dose BID in 0.5% hydroxypropylmethyl cellulose (HPMC) with 0.1% Tween-80 at a dose 3.16-fold higher than the dose used for IP. Body weights of SMA Δ7 mice treated with test compound or vehicle and age matched heterozygous mice are recorded every day.

[2] = system: full length and Δ7 SMN2 mRNA; assay: Endogenous SMN2 mRNA RT-qPCR splicing assay in cultured cells; type: cell-based, human; conditions: Type 1 SMA patient fibroblasts (GM03813), increasing concentrations, 24 hr, FIG. 4
Procedure: The reverse transcription-quantitative PCR-based (RT-qPCR) assay is used to quantify the levels of the full length and Δ7 SMN2 mRNA in primary cells and cell lines containing the SMN2 gene treated with a test compound.
GM03813 SMA patient cells (5,000 cells/well) are seeded in 200 μL, of cell culture medium (DMEM plus 10% FBS) in 96-well flat-bottom plates and the plate is immediately swirled to ensure proper dispersal of cells, forming an even monolayer of cells. Cells are allowed to attach for at least 4-6 hrs. Test compounds are serially diluted 3.16-fold in 100% DMSO to generate a 7-point concentration curve. A solution of test compound (1 μL, 200× in DMSO) is added to each test well and 1 μL, DMSO is added to each control well. The plate is incubated for 24 hrs in a cell culture incubator (37° C., 5% CO2, 100% relative humidity). The cells are then lysed in Cells-To-Ct lysis buffer and the lysate is stored at 80° C.
SMN2-specific spliced products and GAPDH mRNA are identified using the following primers and probes in Table 5. Primer SMN FL Forward B (SEQ ID NO. 7) hybridizes to a nucleotide sequence in exon 7 (nucleotide 32 to nucleotide 54) and exon 8 (nucleotide 1 to nucleotide 4), primer SMN Δ7 Forward B (SEQ ID NO. 8) hybridizes to a nucleotide sequence in exon 6 (nucleotide 87 to nucleotide 111) and exon 8 (nucleotide 1 to nucleotide 3), primer SMN Reverse B (SEQ ID NO. 9) hybridizes to a nucleotide sequence in exon 8 (nucleotide 39 to nucleotide 62), probe SMN Probe B (SEQ ID NO. 10) hybridizes to a nucleotide sequence in exon 8 (nucleotide 7 to nucleotide 36). These primers and probe hybridize to nucleotide sequences common to human SMN1 and SMN2 mRNA. Since the SMA patient cells used in Example 3 contain only the SMN2 gene, RT-qPCR can quantify only SMN2 full-length and Δ7 mRNA.
The SMN forward and reverse primers are used at final concentrations of 0.4 μM. The SMN probe is used at a final concentration of 0.15 μM. GAPDH primers are used at final concentrations of 0.1 μM and the probe at 0.075 μM. The One-Step RT-PCR kit was used as the Real-Time PCR Mix. […]
The increase of SMN2 FL and decrease in SMN2 Δ7 mRNA relative to those in cells treated with vehicle control are determined from real-time PCR data using a modified ΔΔCt method (as described in Livak and Schmittgen, Methods, 2001, 25:402-8). The amplification efficiency (E) is calculated from the slope of the amplification curve for SMN2 FL, SMN2 Δ7, and GAPDH individually. The abundances of SMN2 FL, SMN2 Δ7, and GAPDH are then calculated as (1+E)^−Ct, where Ct is the threshold value for each amplicon. […]

[3] = system: SMA Δ7 homozygous knockout mice; assay: Righting reflex in neonatal Δ7 SMA mice; type: in vivo; conditions: IP QD from PND 3, measured PND 10, 14 and 18, FIG. 14
Procedure: The functional change in righting reflex of neonatal SMA mice is used to determine whether treatment with a test compound improves righting reflex.
SMA Δ7 homozygous knockout mice are dosed intraperitoneally (IP) with test compound or vehicle (100% DMSO) QD from PND 3 until the dose regimen is switched to an oral dose BID in 0.5% hydroxypropylmethyl cellulose (HPMC) with 0.1% Tween-80 at a dose 3.16-fold higher than the dose used for IP. The righting reflex time is measured as the time taken by a mouse to flip over onto its feet after being laid on its back. Righting reflex is measured five times for each mouse (allowing a maximal time of 30 sec for each try) with 5 minutes between each measurement. The righting reflex time for SMA Δ7 homozygous knockout mice treated with test compound or vehicle and age-matched heterozygous mice is measured on PND 10, 14 and 18 and plotted.

In the case of `Cc1cn2cc(-c3cc4ccc(N5CCN(C)CC5)cc4c(=O)o3)nc2c(C)n1` [Cpd 65, 3-(6,8-dimethylimidazo[1,2-a]pyrazin-2-yl)-7-(4-methylpiperazin-1-yl)-1H-isochromen-1-one], the body weight [1] is reported as “improved compared to vehicle treated mice”, the “SMN2 FL mRNA relative to vehicle” value [2] is reported as “progressively more SMN2 FL mRNA” and the “SMN2 Δ7 mRNA relative to vehicle” value [2] is reported as “less SMN2 Δ7 mRNA”. The righting reflex [3] was “improved compared to vehicle treated mice”.

For `Cc1cn2cc(-c3cc4ccc(N5CCN6CCC[C@H]6C5)cc4c(=O)o3)nc2c(C)n1` [Cpd 69, 3-(6,8-dimethylimidazo[1,2-a]pyrazin-2-yl)-7-[(8aS)-hexahydropyrrolo[1,2-a]pyrazin-2(1H)-yl]-1H-isochromen-1-one], the body weight [1] was “improved compared to vehicle treated mice”, the “SMN2 FL mRNA relative to vehicle” value [2] was “progressively more SMN2 FL mRNA” and the “SMN2 Δ7 mRNA relative to vehicle” value [2] was “less SMN2 Δ7 mRNA”. For the same compound, the righting reflex [3] was “improved compared to vehicle treated mice”.
